Source: paper PMC9011347, “Small-Molecule Inhibitors Targeting Lipolysis in Human Adipocytes” (Journal of the American Chemical Society, 2022)

System: HepG2^control cells
Test: Seahorse cellular respiration (OCR)
Type: cell-based, human
Details: NG-497 40 μM
From the text: NG-497 could affect respiration by limiting the availability of FAs as an energy substrate or by off-target effects leading to mitochondrial dysfunction, which is a major mechanism of drug-induced toxicity.[47] To monitor on- and off-target effects of NG-497 on cellular respiration, we performed seahorse experiments using HepG2 cells endogenously expressing (HepG2^control) or lacking ATGL (HepG2^AKO). This method allows the measurement of basal respiration (BR), maximal respiration (MR), proton leak (PL), ATP production (ATPP), spare respiratory capacity (SRC), and nonmitochondrial oxygen consumption (NMOC) after successive addition of oligomycin (ATP-synthase inhibitor), carbonyl cyanide p-trifluoromethoxyphenylhydrazone (FCCP) (uncoupler), and antimycin/rotenone (electron transport chain inhibitors). The human hepatoma cell line HepG2 was selected as a model since it is frequently used to monitor drug-induced mitochondrial dysfunction.[48] Like most cancer cell lines, HepG2 cells rely on anaerobic glycolysis for ATP generation, implicating that inhibition of lipolysis has only minor effects on respiration.
(a) HepG2 cells were treated with NG-497 (40 μM) or DMSO as control and oxygen consumption rate (OCR) was determined in Seahorse growth medium supplemented with glucose (25 mM) using the SeaHorse XF96 extracellular flux analyzer. OCR was determined after subsequent addition of 1 μM Oligomycin (ATP-synthase inhibitor), 1 μM FCCP (uncoupler), and 1 μM antimycin/rotenone (electron transport chain inhibitors). (b) Statistical analysis of basal respiration (BR), maximal respiration (MR), proton leak (PL), ATP production (ATPP), spare respiratory capacity (SRC), and nonmitochondrial oxygen consumption (NMOC) of control and NG-497-treated cells. (c) Extracellular acidification rate (ECAR) and (d) OCR of HepG2 cells were determined in Seahorse growth medium supplemented with glucose (25 mM) or galactose (10 mM). (e) Determination of the ORC of HepG2 cells grown in medium supplemented with galactose (10 mM) and NG-497 (40 μM) or DMSO as control with (f) respective statistical analysis. (g) ATGL gene was inactivated in HepG2 cells using the CRISPR/Cas9 system. Growth of cells expressing (HepG2^control) or lacking functional ATGL (HepG2^AKO) was determined using a BioRad cell analyzer. ATGL expression was analyzed by Western blotting analysis using an anti-ATGL antibody and GAPDH as a loading control (inset). (h) Acylglycerol content of HepG2^control and HepG2^AKO cells was determined by a commercial kit (TG Infinity reagent, Thermo Fisher Scientific). (i) OCR of galactose-supplemented HepG2^AKO cells and (j) the respective statistical analysis. Data are presented as mean ± standard error of the mean (SEM). Statistical significance was determined via Student’s t test (*p < 0.05; **p < 0.01; ***p < 0.001) or ANOVA followed by Bonferroni post hoc test (^#p < 0.05; ^##p < 0.01; ^###p < 0.001). […]
Sanger sequencing. The resulting constructs were transfected into HepG2 cells using the Turbofect Reagent (#R0531, Thermo Fisher Scientific) according to the manufacturer’s instructions. Cells transfected with empty pSpCas9(BB)-2A-Puro V2.0 served as negative control. 24 h after transfection, puromycin was added at a concentration of 4 µg/ml to eliminate non-transfected cells.
48 h later, the remaining cells were singularized in 96-well plates by seeding 1 cell/well. After clonal expansion for three weeks, the resulting cell lines were screened for ATGL deletion by immunoblotting using an ATGL-specific antibody (#2138S, CST). gRNA_v1 construct was chosen for further analysis.
Determination of cellular acylglycerol content. Cells were harvested in buffer A, total lipids extracted with chloroform/methanol (2/1, v/v) for 1 h at RT on a top-over wheel, and phase separation was achieved by centrifugation at 2,000 x g for 10min at RT. The organic phase was collected, dried under a stream of nitrogen, and dissolved in 2% Triton X-100 by […]
sonication. […]

[1] = glucose medium, tendency, not significant

## CCOc1ccc(-c2cc(OC)cc(C(=O)OC(C)C)n2)cc1 [NG-497]
Galactose (10 mM) medium
  change of basal OCR (BR): −15%
  change of maximal respiration (MR): −17%
  change of spare respiratory capacity (SRC): −20%
[1]
  change of maximal respiration (MR): −11%
  change of spare respiratory capacity (SRC): −18%
Medium with glucose (25 mM)
  effects on respiration (OCR parameters): could not observe significant effects
